Results taken from patent US20180092908A1, “SMALL MOLECULE OXIDIZERS OF PDI AND THEIR USE” (THE TRUSTEES OF COLUMBIA UNIVERSITY IN THE CITY OF NEW YORK, priority 2015, published 2018).
Values after ≈ are worked out from the molar mass of the structure shown. Where two headings read alike, the source gives them in different places.

Key:
[1] = Mouse microsome stability assay; assay type: in vitro ADME; settings: compound 0.5 μM
Procedure: At 0, 5, 15, 30 and 45 minute intervals, an aliquot was taken and quenched with acetonitrile (ACN) containing internal standard. No-cofactor controls at 45 minutes were prepared. Following completion of the experimentation, the samples were analyzed by LC-MS/MS. […] C=initial×exp (−k×t). Intrinsic clearance (CLint) was calculated as liver clearance from the half-life using the following equation: CLint=k×(ml incubation/0.5 mg protein)×(52.5 mg protein/g liver). Results were reported as peak area ratios of analyte to internal standard. The intrinsic clearance (CLint) was determined from the first order elimination constant by non-linear regression. The microsome stability assay, plasma stability assay, and plasma protein binding assay were each performed by Alliance Pharma, Inc. (Malvern, Pa.).

[2] = biological target: T1, human catalytic PDI A1 a domain (PDIa) (Homo sapiens, UniProt P07237); assay: Isothermal titration calorimetry (ITC) binding to PDIa; settings: PDIa
T1 construct: made in house; host or cells: Escherichia coli BL21-Gold (DE3)

Solubility = settings: for solubility: Table 4
[3] = biological target: T2, recombinant catalytic a domain of human PDI A1 (PDIa) (Homo sapiens, UniProt P07237); assay: Insulin aggregation assay (PDIa reductase activity); assay type: biochemical; settings: Table 5
T2 construct: made in house; host or cells: Escherichia coli BL21-Gold (DE3)
Description: In this insulin aggregation assay (Xu et al., 2012; Jasuja et al., 2012; Khan et al., 2011; Smith et al., 2004), PDIa reduced the two disulfide bonds between the α- and β-chains of insulin, causing the β-chain to aggregate and precipitate, resulting in an increase in absorbance at 650 nm.
To investigate the mode of binding further and to determine whether the binding was reversible or irreversible, the recovery of enzymatic activity of PDIa after dilution of pre-formed concentrated PDIa-LOC14 complexes was analyzed. LOC14 (750 μM) was incubated with a concentrated solution of PDIa (500 μM). The mixture was then diluted 100-fold and PDI's enzymatic activity was measured in the insulin reduction assay. As a control, the same procedure was also performed on the sample containing an irreversible inhibitor, 16F16 (16F16 at 750 μM and PDIa at 500 μM). […] This illustrated that unlike 16F16, LOC14 binding to PDIa is reversible.

PC12 mHTT^Q103 cells = assay: Rescue of PC12 cells from mHTT^Q103 induced cell death (Alamar blue viability); assay type: cell-based; settings: Rattus norvegicus
Description: PC12 mHTT^Q103 cells were a gift from Erik S. Schweitzer (UCLA School of Medicine, Los Angeles, Calif.). These cells are stably transfected with the first exon of human HTT gene containing the pathogenic 103 CAG/CAA repeat expansion, under the control of the ecdysteroid promoter (Aiken et al., 2004). The plasmid also contains a Bombyx mori ecdysone receptor gene fused at N-terminal with VP16 transactivation domain (Suhr et al., 1998; Vilaboa et al., 2011). Addition of the ecdysone analog, tebufenozide, to the cell culture medium is used to initiate the transcription of mutant HTT (Aiken et al., 2004).
PC12 mHTT^Q103 cells were cultured in DMEM containing 4.5 g/I glucose, 25 mM HEPES, sodium pyruvate, and no L-glutamine (Mediatech, cat. no. 15-018-CV), supplemented with 10% (v/v) Cosmic Calf serum, 2 mM L-glutamine, 100 units/mL of penicillin-streptomycin, and 0.5 mg/ml active geneticin. Cells were grown at 37° C., 9.5% CO2, and the medium was replaced with fresh medium every 2-3 days. To induce mHTT^Q103 expression for experiments, tebufenozide, a gift from Lynne Moore and Fred H. Gage (The Salk Institute for Biological Studies, La Jolla, Calif.), was added to the medium at 200 nM final concentration from 1 mM stock in 85% ethanol.
LOC mother plates with compounds at 4 mg/ml were thawed and spun down (1000 rpm, 20° C., 1 min) prior to use. Biomek FX (Beckman Coulter) robotic liquid dispenser was used to handle all liquid transferring and mixing. […] Two fold serial dilution was performed across five daughter plates by transferring 50 μl of compounds (at […]) from the D1 plate into 50 μl of PC12 medium in daughter plate D2, mixing, and then repeating the process for the remaining three plates. Daughter plate D1 with compounds at […], daughter plate D3 with compounds at 20 μl/ml and daughter plate D5 with compounds at 5 μl/ml were then used for the screen. Assay plates were set up by seeding tebufenozide-induced PC12 mHTT^Q103 cells into 384-well black, clear-bottom plates (Corning Inc. cat. no. 3712) at a density of 7,500 cells per well in 57 μl PC12 medium without geneticin. Three microliters of compound from the daughter plates (D1, D3, and D5) were added to the assay plates for a final compound concentration of 4 μl/ml, 1 μl/ml, and 0.25 μl/ml. Four wells containing uninduced PC12 mHTT^Q103 cells and four wells containing medium only, were also included on each plate as controls. The assay plates were incubated at 37° C., 9.5% CO2 for 48 hours. Twenty microliters of 40% Alamar blue (Life Technologies cat. no. DAL1100) solution in PC12 medium was added to each well (1:10 final dilution) and the plates were incubated for an additional 12-24 hours at 37° C., 9.5% CO2. Alamar blue fluorescence was read on a fluorescence plate reader (PerkinElmer Victor3) with 530 nm excitation filter and 590 nm emission filter. Each compound concentration was tested in triplicate.
The follow-up testing of primary screen hits was performed in a similar way. Fresh powder stocks of primary hits were re-ordered from vendors, dissolved in DMSO and tested in a two-fold serial dilution across 10 wells in both tebufenozide-induced and uninduced PC12 mHTT^Q103 cells. Dose-response curves were plotted as mean±SD and fit to either four-parameter sigmoidal (for uninduced cells) or bell-shaped (induced) function using Prism (GraphPad Software).
A cascade of two assays was used, involving both a phenotypic high-throughput screening (HTS) assay and an in vitro PDI reductase assay, to identify neuroprotective PDI-inhibiting compounds. […] Alamar blue was used as a fluorescent readout for viability after 48 hours of compound treatment and mHTT^Q103 induction. […] All the candidate hit compounds were re-tested in a two-fold dilution series.

[4] = biological target: T1, human catalytic PDI A1 a domain (PDIa); assay: Isothermal titration calorimetry (ITC) binding to PDIa; settings: PDIa; remark: listed apart in the source
Procedure: All ITC experiments were carried out at 25° C. on MicoCal Auto-ITC200 system (GE Healthcare). Reduced PDIa was dialyzed into ITC buffer (20 mM sodium phosphate buffer pH 7.8) and loaded into a sample cell at 40 μM concentration. The compound solution was loaded into a syringe at 400 μM in the same ITC buffer with a final DMSO concentration at 0.4% (v/v). ITC titration experiments were carried out at 25° C. with 19 injections, 2 μl per injection, and 180 seconds between each injection. The reference cell power was set to 5 μcal/sec. A control experiment was performed for each compound, where each compound was titrated into buffer to account for heat released due to dilution. This background was subtracted from test data before a final dissociation constant was obtained. Data were analyzed using a one-site binding model in Origin 7.1 software. […] Gibbs free energy, ΔG, was calculated from equation ΔG=ΔH−TΔS. All other parameters, Ka, n, ΔH, ΔS, were determined directly from the titration data.
For ITC experiments with 16F16 pre-treatment, 40 μM PDIa (after dialysis into ITC buffer) was treated with 200 μM 16F16 for 12-15 hours at 4° C. Next day the whole solution was loaded into the sample cell. LOC14 at 400 μM in ITC buffer was loaded into syringe and titrated into PDIa+16F16 loaded cell. For control experiments, ITC buffer with 200 μM 16F16 was used in the cell, while 400 μM LOC14 in ITC buffer was used in the syringe.
The binding mode of LOC14 to PDIa was next investigated using isothermal titration calorimetry (ITC). ITC measures the heat released or absorbed during a biomolecular interaction. It is a direct analytical method for determining the binding and thermodynamic parameters, such as reaction stoichiometry (n), binding constants (Ka and Kd), enthalpy (ΔH), entropy (ΔS), and free energy (ΔG) of an interaction.

physchem = settings: DMSO, organic solvent or mixture
[5] = first site, Table 4, read-out: ITC KD1 (two binding site)
[6] = first site, Table 5, read-out: ITC Assay KD1 (2 binding sites)
[7] = PC-12, Table 5, read-out: Cell Viability Assay EC50
[8] = Table 5, read-out: ITC Assay KD

T2 sequence (P07237 with tags, fused parts or gaps): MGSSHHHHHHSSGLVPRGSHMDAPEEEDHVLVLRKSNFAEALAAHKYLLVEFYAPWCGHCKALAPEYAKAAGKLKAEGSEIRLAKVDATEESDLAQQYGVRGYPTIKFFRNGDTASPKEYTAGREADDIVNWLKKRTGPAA
T1 sequence (P07237 with tags, fused parts or gaps): as above

| Compound | Insulin Assay (either active or inactive) [3] | ITC Assay KD ([4]; Table 5) | solubility (physchem) [mM] | EC50 (PC12 mHTT^Q103 cells; [7]) [nM] | other results |
| --- | --- | --- | --- | --- | --- |
| CCOc1ccc2ccc(=O)oc2c1 [7-Ethoxycoumarin, reference compound] |  |  |  |  | Elimination rate constant (k) ([1]; mouse liver microsomes): 0.2341; Intrinsic Clearance (CLint), mL/min/g liver ([1]; mouse liver microsomes): 24.58 mL/min/g liver; half-life at 0.5 μM ([1]; mouse, liver microsomes, pH 7.4, mouse liver microsomes, read-out: Half-life (t1/2)): 3 min |
| O=c1c2ccccc2[se]n1-c1ccccc1 [Ebselen, reference compound] |  |  |  |  | Kd [2, 5]: 5.2 nM; Kd ([2]; second site, Table 4, read-out: ITC KD2 (two binding site)): 111 nM; solubility (Solubility): Poor |
| O=c1c2ccccc2sn1Cc1ccccc1 [LC-5, 2-benzylbenzo[d]isothiazol-3(2H)-one] | Active |  |  |  | Kd [2, 5]: 42.7 nM; Kd [2, 6]: 42.7 nM; Kd ([2]; read-out: ITC Assay KD2 (2 binding sites), second site, Table 5): 2270 nM; Solubility in DMSO (Solubility; Table 5): 100 mM in DMSO |
| O=C(C1CC1)N1CCN(C(=O)n2sc3ccccc3c2=O)CC1 [LC-14] | not active | KD = N/A irreversible or not active | 30 (≈ 9940 µg/mL) | > 50000 |  |
| O=C(C1CC1)N1CCN(Cn2sc3ccc(Cl)cc3c2=O)CC1 [LC-15, 5-chloro-2-((4-(cyclopropanecarbonyl)piperazin-1-yl)methyl)benzo[d]isothiazol-3(2H)-one] | Active |  | 20 (≈ 7040 µg/mL) | 467 | Kd ([4]; Table 4, read-out: ITC KD): 114 nM; Kd [4, 8]: 114 nM |
| O=c1c2ccccc2sn1-c1ccccc1 [LC-24] | not active |  | 50 (≈ 11400 µg/mL) |  | EC50 (PC12 mHTT^Q103 cells; PC-12, read-out: Cell Viability Assay EC50): 1130 nM; Kd [2, 6]: 8.1 nM |

The next lines start with results.

| Insulin Assay (either active or inactive) [3] | ITC Assay KD ([4]; Table 5) | solubility (physchem) [mM] | Compound | EC50 (PC12 mHTT^Q103 cells; [7]) [nM] | other results |
| --- | --- | --- | --- | --- | --- |
| not active | KD = N/A irreversible or not active | 50 (≈ 13500 µg/mL) | O=C(Nc1ccccc1)n1sc2ccccc2c1=O [LC-6, 3-oxo-N-phenylbenzo[d]isothiazole-2(3H)-carboxamide] | 476 | ITC KD ([4]; Table 4): KD = not active |
| Active |  | 50 (≈ 18200 µg/mL) | CC(C)(C)OC(=O)NC1CCN(Cn2sc3ccccc3c2=O)CC1 [LC-8] | 384 | Kd ([4]; Table 4, read-out: ITC KD): 94.3 nM; Kd [4, 8]: 94.3 nM; Solubility in DMSO (Solubility; Table 5): 50 mM in DMSO |
| Active |  | < 6.75 | O=c1c2ccccc2sn1CN1CCN(Cn2sc3ccccc3c2=O)CC1 [LC-9, 2,2′-(piperazine-1,4-diylbis(methylene))bis(benzo[d]isothiazol-3(2H)-one)] | 173 | solubility (Solubility): poor solubility; Solubility (words, printed in ITC Assay column) (Solubility; Table 5): poor solubility |
| not active | KD = N/A irreversible or not active | 50 (≈ 17400 µg/mL) | CC(C)(C)OC(=O)N1CCC(COc2nsc3ccccc23)CC1 [LC-16] | > 50000 |  |
| not active | KD = N/A irreversible or not active | 30 (≈ 9370 µg/mL) | O=c1c2ccccc2sn1-c1ccc(N2CCOCC2)cc1 [LC-27] | 1830 |  |
| not active | KD = N/A irreversible or not active | 50 (≈ 7610 µg/mL) | O=c1[nH]sc2ncccc12 [LC-47] | > 50000 |  |
| Active |  | 25 (≈ 8660 µg/mL) | Cc1cc(C)c2c(=O)n(CN3CCN(C(=O)C4CC4)CC3)sc2n1 [LC-53] | 4200 |  |
